Measured values reported in patent US11180487B2, “Substituted cyanoindoline derivatives as NIK inhibitors” (Janssen Pharmaceutica NV, priority 2016, dated 2021).
Read-outs that look alike come from different tables or passages of the source.

Key:
[1] = molecular target: recombinant human NF-kappaB-inducing kinase (NIK/MAP3K14) (Homo sapiens, UniProt Q99558); assay: Inhibition of auto-phosphorylation of recombinant human NIK/MAP3K14 activity (AlphaScreen), Biological Assay A; type: biochemical; conditions: averaged values over all measurements on all batches
Chain of recombinant human NF-kappaB-inducing kinase (NIK/MAP3K14) (Q99558 whole entry): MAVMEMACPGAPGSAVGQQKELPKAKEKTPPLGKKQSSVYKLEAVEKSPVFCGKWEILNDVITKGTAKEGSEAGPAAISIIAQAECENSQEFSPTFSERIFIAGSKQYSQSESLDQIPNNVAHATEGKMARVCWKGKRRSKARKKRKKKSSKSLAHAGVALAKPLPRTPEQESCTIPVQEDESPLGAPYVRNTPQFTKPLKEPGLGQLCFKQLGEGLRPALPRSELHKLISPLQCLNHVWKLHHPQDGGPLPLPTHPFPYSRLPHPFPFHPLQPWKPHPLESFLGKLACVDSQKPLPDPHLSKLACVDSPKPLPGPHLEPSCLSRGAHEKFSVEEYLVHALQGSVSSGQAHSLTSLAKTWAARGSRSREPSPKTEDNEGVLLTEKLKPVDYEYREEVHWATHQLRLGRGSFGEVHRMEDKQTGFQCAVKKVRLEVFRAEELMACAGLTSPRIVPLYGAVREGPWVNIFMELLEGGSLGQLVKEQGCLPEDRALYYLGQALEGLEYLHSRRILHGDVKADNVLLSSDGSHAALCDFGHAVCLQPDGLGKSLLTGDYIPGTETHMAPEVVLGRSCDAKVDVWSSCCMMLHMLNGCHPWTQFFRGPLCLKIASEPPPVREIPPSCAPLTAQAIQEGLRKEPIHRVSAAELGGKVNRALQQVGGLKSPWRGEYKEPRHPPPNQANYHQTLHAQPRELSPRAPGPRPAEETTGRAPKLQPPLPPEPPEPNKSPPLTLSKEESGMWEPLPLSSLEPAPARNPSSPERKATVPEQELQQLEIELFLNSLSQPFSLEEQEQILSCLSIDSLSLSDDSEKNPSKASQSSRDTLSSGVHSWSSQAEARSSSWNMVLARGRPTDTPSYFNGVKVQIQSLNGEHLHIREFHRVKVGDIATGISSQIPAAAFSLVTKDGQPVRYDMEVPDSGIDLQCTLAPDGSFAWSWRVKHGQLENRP
Description: Inhibition of Auto-Phosphorylation of Recombinant Human NF-kappaB-Inducing Kinase (NIK/MAP3K14) Activity (AlphaScreen®)
NIK/MAP3K14 auto-phosphorylation activity was measured using the AlphaScreen® (αscreen) format (Perkin Elmer). All compounds tested were dissolved in dimethyl sulfoxide (DMSO) and further dilutions were made in assay buffer. Final DMSO concentration was 1% (v/v) in assays. Assay buffer was 50 mM Tris pH 7.5 containing 1 mM EGTA (ethylene glycol tetraacetic acid), 1 mM DTT (dithiothreitol), 0.1 mM Na3VO4, 5 mM MgCl2, 0.01% Tween® 20. Assays were carried out in 384 well Alphaplates (Perkin Elmer). Incubations consisted of compound, 25 microM Adenosine-5′-triphosphate (ATP), and 0.2 nM NIK/MAP3K14. Incubations were initiated by addition of GST-tagged NIK/MAP3K14 enzyme, carried out for 1 h at 25° C. and terminated by addition of stop buffer containing anti-phospho-IKK Ser176/180 antibody. Protein A Acceptor and Glutathione-Donor beads were added before reading using an EnVision® Multilabel Plate Reader (Perkin Elmer). Signal obtained in the wells containing blank samples was subtracted from all other wells and IC50's were determined by fitting a sigmoidal curve to % inhibition of control versus Log10 compound concentration.

[2] = system: P-IKKα levels in L363 (NIK translocated multiple myeloma) cells; assay: Effect of compounds on P-IKKα levels in L363 cells (Mesoscale sandwich immuno-assay), Biological Assay B; type: cell-based, human; conditions: 2 hr treatment, averaged values, read-out: Inhibition of pIKKα_L-363 (IC50 (nM))
Description: Effect of Compounds on P-IKKα Levels in L363 (NIK Translocated Multiple Myeloma) Cells
All compounds tested were dissolved in DMSO and further dilutions were made in culture medium. Final DMSO concentration was 1% (v/v) in cell assays. The human L363 cells (ATCC) were cultured in RPMI 1640 medium supplemented with GlutaMax and 10% fetal calf serum (PAA). Cells were routinely maintained at densities of 0.2×10^6 cells per ml-1×10^6 cells per ml at 37° C. in a humidified 5% CO2 atmosphere. Cells were passaged twice a week splitting back to obtain the low density. Cells were seeded in 96 well plates (Nunc 167008) at 2×10^6 per ml media in a volume of 75 μl per well plus 25 μl 1 μg/ml recombinant human B-cell activating factor (BAFF/BLyS/TNFSF13B). Seeded cells were incubated at 37° C. in a humidified 5% CO2 atmosphere for 24 hr. Drugs and/or solvents were added (20 μl) to a final volume of 120 μl. Following 2 hr treatment plates were removed from the incubator and cell lysis was achieved by the addition of 30 μl 5× lysis buffer followed by shaking on a plate shaker at 4° C. for 10 min. At the end of this incubation lysed cells were centrifuged at 800×g for 20 min at 4° C. and the lysate was assessed for P-IKKα levels by sandwich immuno-assay carried out in anti-rabbit antibody coated Mesoscale plates. Within an experiment, the results for each treatment were the mean of 2 replicate wells. For initial screening purposes, compounds were tested using an 8 point dilution curve (serial 1:3 dilutions). For each experiment, controls (containing MG132 and BAFF but no test drug) and a blank incubation (containing MG132 and BAFF and 10 μM ADS125117, a test concentration known to give full inhibition) were run in parallel. The blank incubation value was subtracted from all control and sample values. To determine the IC50 a sigmoidal curve was fitted to the plot of % inhibition of control P-IKKα levels versus Log10 compound concentration.
Note: Compounds 237 and 238 were tested at a maximum top concentration of 823 nM.

[3] = system: KMS12-BM (NIK WT) multiple myeloma cells; assay: Antiproliferative activity on KMS12-BM multiple myeloma cells (CellTiter-Glo, 96 hr), Biological Assay C; type: cell-based, human; conditions: Homo sapiens, KMS-12-BM, 96 h, averaged values, read-out: KMS-12 Proliferation inhibition (IC50 (nM))
Description: (§1) Determination of Antiproliferative Activity on JJN-3 (NIK Translocated) and KMS12-BM (NIK WT) Multiple Myeloma Cells
(§2) All compounds tested were dissolved in DMSO and further dilutions were made in culture medium. Final DMSO concentration was 0.3% (v/v) in cell proliferation assays. Viability was assessed using CellTiter-Glo cell viability assay kit (Promega). The human JJN-3 and KMS12-BM cells (DSMZ) were cultured in RPMI 1640 medium supplemented with 2 mM L-glutamine, and 10% fetal calf serum (PAA). Cells were routinely kept as suspension cells at 37° C. in a humidified 5% CO2 atmosphere. Cells were passaged at a seeding density of 0.2×10^6/ml twice a week. Cells were seeded in black tissue culture treated 96-well plates (Perkin Elmer). Densities used for plating ranged from 15000 (JJN3) to 20000 (KMS12BM) cells per well in a total volume of 135 μl medium. Drugs and/or solvents were added (15 μl) to a final volume of 150 μl. Following 96 hr of treatment, plates were removed from the incubator and allowed to equilibrate to room temperature for approx 10 min. 75 μl CellTiter-Glo reagent was added to each well that was then covered (Perkin Elmer Topseal) and shaken on plate shaker for 10 min. Luminescence was measured on a HTS Topcount (Perkin Elmer).
(§3) Within an experiment, the results for each treatment were the mean of 2 replicate wells. For initial screening purposes, compounds were tested using a 9 point dilution curve (serial 1:3 dilutions). For each experiment, controls (containing no drug) and a blank incubation (containing cells read at the time of compound addition) were run in parallel. The blank value was subtracted from all control and sample values. For each sample, the mean value for cell growth (in relative light units) was expressed as a percentage of the mean value for cell growth of the control.

[4] = system: JJN-3 (NIK translocated) multiple myeloma cells; assay: Antiproliferative activity on JJN-3 multiple myeloma cells (CellTiter-Glo, 96 hr), Biological Assay C; type: cell-based, human; conditions: Homo sapiens, JJN-3, 96 h, JJN-3 (NIK translocated) cells, averaged values, read-out: JJN-3 Proliferation inhibition (IC50 (nM))
Description: as §1, §2, §3

SMILES: C[C@]1(CO)CNc2c(C#N)cc(-c3ccnc(Nc4ccccc4C4CCCN4)n3)cc21 (single isomer, unassigned) [Compound 237]
- IC50 [1]: 214 nM
- IC50 ([2]; Homo sapiens, L-363, 2 h): > 832 nM

SMILES: C[C@]1(CO)CNc2c(C#N)cc(-c3ccnc(Nc4ccccc4C4CCCN4)n3)cc21 (single isomer, unassigned) [Compound 238]
- IC50 [1]: 955 nM
- IC50 [2]: > 832 nM

SMILES: Cc1c(Nc2nccc(-c3cc(C#N)c4c(c3)C(C)(CO)CN4)n2)cc(Cl)cc1C(=O)N1CCN(C)CC1 (stereo not drawn) [Compound 58]
- IC50 [3]: 6760 nM
- IC50 [4]: 85 nM
- IC50 [1]: 2.6 nM
- melting point: 183 °C

SMILES: CC(=O)Nc1cc(Cl)cc(Nc2nccc(-c3cc(C#N)c4c(c3)[C@@](C)(CO)CN4)n2)c1C [Compound 63]
- IC50 [3]: ~5010 nM
- IC50 [4]: 7 nM
- IC50 [1]: 1.7 nM
- melting point: 262 °C

SMILES: COCCOc1cc(P(C)(C)=O)ccc1Nc1nccc(-c2cc(C#N)c3c(c2)[C@@](C)(CO)CN3)n1 [Compound 67]
- IC50 [3]: > 10000 nM
- IC50 [4]: ~1700 nM
- IC50 [1]: 4.3 nM
- melting point: 188 °C

SMILES: COCCOc1cc(F)ccc1Nc1nccc(-c2cc(C#N)c3c(c2)[C@@](C)(CO)CN3)n1 [Compound 69]
- IC50 [3]: > 10000 nM
- IC50 [4]: 1020 nM
- IC50 [1]: 4.9 nM
- melting point: 157 °C

SMILES: C[C@]1(CO)CNc2c(C#N)cc(-c3ccnc(Nc4cc(C#N)ccc4C(F)(F)F)n3)cc21 [Compound 70]
- IC50 [3]: > 10000 nM
- IC50 [4]: 2190 nM
- IC50 [1]: 3.9 nM
- melting point: 237 °C

SMILES: C[C@]1(CO)CNc2c(C#N)cc(-c3ccnc(Nc4cc(C#N)ccc4C4CC4)n3)cc21 [Compound 71]
- IC50 [3]: > 10000 nM
- IC50 [4]: 148 nM
- IC50 [1]: 7.2 nM
- melting point: 210 °C

SMILES: COCCCc1ccc(Cl)cc1Nc1nccc(-c2cc(C#N)c3c(c2)[C@@](C)(CO)CN3)n1 [Compound 72]
- IC50 [3]: > 10000 nM
- IC50 [4]: 123 nM
- IC50 [1]: 11 nM
- melting point: 189 °C

SMILES: Cc1cc(C2CCOCC2)c(C#N)cc1Nc1nccc(-c2cc(C#N)c3c(c2)[C@@](C)(CO)CN3)n1 [Compound 75]
- IC50 [3]: ~3310 nM
- IC50 [4]: 105 nM
- IC50 [1]: 3.6 nM
- melting point: 228 °C

SMILES: CC1(C)CNc2c(C#N)cc(-c3ccnc(Nc4cc(Cl)ccc4OC4CCN(C5CC5)CC4)n3)cc21 [Compound 99]
- IC50 [3]: 8320 nM
- IC50 [4]: 380 nM
- IC50 [1]: 219 nM
- melting point: 120 °C

SMILES: COCCOc1ccc(Cl)cc1Nc1nccc(-c2cc(C#N)c3c(c2)C(C)(C)CN3)n1 [Compound 100]
- IC50 [3]: > 10000 nM
- IC50 [4]: 1410 nM
- IC50 [1]: 91.2 nM
- melting point: 171 °C

SMILES: CN1CCCC(Oc2ccc(Cl)cc2Nc2nccc(-c3cc(C#N)c4c(c3)C(C)(C)CN4)n2)C1 (stereo not drawn) [Compound 101]
- IC50 [3]: 1350 nM
- IC50 [4]: 447 nM
- IC50 [1]: 49 nM
- melting point: 104 °C

SMILES: CC(C)Oc1ccc(Cl)cc1Nc1nccc(-c2cc(C#N)c3c(c2)C(C)(C)CN3)n1 [Compound 102]
- IC50 [3]: > 10000 nM
- IC50 [4]: 3550 nM
- IC50 [1]: 403 nM
- melting point: 112 °C

SMILES: CC1(C)CNc2c(C#N)cc(-c3ccnc(Nc4cc(Cl)ccc4OC4CCOCC4)n3)cc21 [Compound 103]
- IC50 [3]: > 10000 nM
- IC50 [4]: 3720 nM
- IC50 [1]: 105 nM
- melting point: 126 °C

SMILES: COc1cc(Nc2nccc(-c3cc(C#N)c4c(c3)C(C)(C)CN4)n2)c(F)c(OC)c1 [Compound 104]
- IC50 [3]: > 10000 nM
- IC50 [4]: 2140 nM
- IC50 [1]: 12 nM
- melting point: 176 °C

SMILES: CC1(C)CNc2c(C#N)cc(-c3ccnc(Nc4cc(Cl)ccc4OCCO)n3)cc21 [Compound 107]
- IC50 [3]: > 10000 nM
- IC50 [4]: 1020 nM
- IC50 [1]: 41.7 nM
- melting point: 176 °C

SMILES: CC1(C)CNc2c(C#N)cc(-c3ccnc(Nc4ccccc4C(=O)N4CCC(O)C4)n3)cc21 (stereo not drawn) [Compound 111]
- IC50 [3]: > 10000 nM
- IC50 [4]: 3470 nM
- IC50 [1]: 3550 nM
- melting point: 219 °C

SMILES: COc1cc(C(=O)NCC(C)O)c(Cl)cc1Nc1nccc(-c2cc(C#N)c3c(c2)C(C)(C)CN3)n1 (stereo not drawn) [Compound 112]
- IC50 [3]: > 10000 nM
- IC50 [4]: 20 nM
- IC50 [1]: 4.3 nM
- melting point: > 260 °C

SMILES: COc1cc(C(=O)N2CC3(CCCNC3)C2)c(Cl)cc1Nc1nccc(-c2cc(C#N)c3c(c2)C(C)(C)CN3)n1 [Compound 113]
- IC50 [3]: ~407 nM
- IC50 [4]: 28 nM
- IC50 [1]: 2.6 nM
- melting point: 178 °C

SMILES: COc1cc(C(=O)N2CC3(CCNCC3)C2)c(Cl)cc1Nc1nccc(-c2cc(C#N)c3c(c2)C(C)(C)CN3)n1 [Compound 114]
- IC50 [3]: 490 nM
- IC50 [4]: 19 nM
- IC50 [1]: 2.2 nM
- melting point: 206 °C

SMILES: COc1cc(C(=O)N2CCNC(C#N)C2)c(Cl)cc1Nc1nccc(-c2cc(C#N)c3c(c2)C(C)(C)CN3)n1 (stereo not drawn) [Compound 121]
- IC50 [3]: 120 nM
- IC50 [4]: 12 nM
- IC50 [1]: 8.5 nM
- melting point: 193 °C

SMILES: COc1cc(C(=O)N2CC3(CC(O)C3)C2)c(Cl)cc1Nc1nccc(-c2cc(C#N)c3c(c2)C(C)(C)CN3)n1 [Compound 123]
- IC50 [3]: 1050 nM
- IC50 [4]: 14 nM
- IC50 [1]: 8.5 nM
- melting point: 287 °C

SMILES: Cc1ccc(C#N)cc1Nc1nccc(-c2cc(C#N)c3c(c2)[C@@](C)(COC(=O)CN2CCN(C)CC2)CN3)n1 [Compound 145]
- IC50 [1]: 17.4 nM
- IC50 ([2]; Homo sapiens, L-363, 2 h): 436 nM

SMILES: Cc1ccc(COC(C)C)cc1Nc1nccc(-c2cc(C#N)c3c(c2)[C@@](C)(CO)CN3)n1 [Compound 149]
- IC50 [1]: 10 nM
- IC50 ([2]; Homo sapiens, L-363, 2 h): 102 nM

SMILES: Cc1cc(C(=O)NCC2COC2)c(F)cc1Nc1nccc(-c2cc(C#N)c3c(c2)[C@@](C)(CO)CN3)n1 [Compound 187]
- IC50 [3]: 1100 nM
- IC50 [4]: 39 nM
- IC50 [1]: 3.2 nM
- melting point: 240 °C

SMILES: Cc1c(Nc2nccc(-c3cc(C#N)c4c(c3)[C@@](C)(CO)CN4)n2)cccc1C(=O)N1CCN(C2CC2)CC1 [Compound 206]
- IC50 [3]: ~7240 nM
- IC50 [4]: 71 nM
- IC50 [1]: 5.3 nM
- melting point: 238 °C

SMILES: Cc1ccc(C2CN(C)C2)cc1Nc1nccc(-c2cc(C#N)c3c(c2)[C@@](C)(CO)CN3)n1 [Compound 210]
- IC50 [1]: 33.1 nM
- IC50 ([2]; Homo sapiens, L-363, 2 h): > 10000 nM
